How the values were obtained:
[1] = Chemical exchange rate (kex) of amide protons from 1H-NMR linewidth; format: physicochemical
Method: High-resolution 1H-NMR spectra were recorded on a Bruker Avance 600 spectrometer (Bruker BioSpin Rheinstetten, Germany) operating at 14 T (corresponding to a proton Larmor frequency of 600.13 MHz) equipped with a Z-gradient 5 mm inverse probe. Sample temperature control was monitored within +/−0.1 K by means of the BTO2000 variable temperature unit. 1H NMR spectra to measure the linewidth of exchangeable protons were obtained by means of a pulse sequence using water suppression by excitation sculpting with gradients (T. L. Hwang, A. J. Shaka Water Suppression That Works. Excitation Sculpting Using Arbitrary Wave-Forms and Pulsed-Field Gradients, J. Magn. Reson. Ser. A, 1995, 112(3), 275-279). The carrier frequency was carefully set on resonance to the water signal. Simple “excite-detect” acquisitions (typical parameters: 16 ppm spectral window, 32 k complex data points, 3 s relaxation delay, and 64 averaged FIDs) were carried out to measure the linewidths of the exchangeable amide protons at 310 K. In vitro studies were performed by preparing 30 mM solutions of Iodixanol in aqueous phosphate buffer solution (10 mM), with the pH adjusted within the 5.5-7.4 range by addition of aliquots of HCl/NaOH. Capillaries containing the solutions were transferred into a 5 mm NMR tube filled with D2O for field-frequency lock.
Exchange rate values analogously assessed in the pH range of from 5.4 to 7.9 for some radiographic contrast agents according to the invention are provided in the following Table 3.

[2] = 7.05 T, 310 K, pH 7.4; cited from earlier work

Row | Kex ([1]; pH 5.5, 310K) [s⁻¹] | Kex ([1]; pH 6.0, 310K) [s⁻¹] | Kex ([1]; pH 6.3, 310K) [s⁻¹] | Kex ([1]; pH 6.7, 310K) [s⁻¹] | Kex ([1]; pH 7.0, 310K) [s⁻¹] | Kex ([1]; pH 7.4, 310K) [s⁻¹] | Kex ([1]; pH 7.9, 310K) [s⁻¹] | Kex ([1]; physiological conditions, Example 1) | Structure (SMILES) | averaged Kex exchange rate of amide mobile protons [2]
1 | 32 | 51 | 80 | 179 | 476 | 1213 | 1332 | exceeds 200 Hz | CC(=O)N(CC(O)CN(C(C)=O)c1c(I)c(C(=O)NCC(O)CO)c(I)c(C(=O)NCC(O)CO)c1I)c1c(I)c(C(=O)NCC(O)CO)c(I)c(C(=O)NCC(O)CO)c1I (stereo not drawn) [Iodixanol] | 
2 | 22 | 69 | 139 | 372 | 923 | 1609 | 4056 |  | CC(=O)N(CC(O)CO)c1c(I)c(C(=O)NCC(O)CO)c(I)c(C(=O)NCC(O)CO)c1I (stereo not drawn) [Iohexol] | 
3 | 30 | 88 | 164 | 430 | 794 | 1831 | 4389 |  | CN(C(=O)CO)c1c(I)c(C(=O)NCC(O)CO)c(I)c(C(=O)NCC(O)CO)c1I (stereo not drawn) [Iomeprol] | 
4 |  |  |  |  |  |  |  |  | C[C@H](O)C(=O)Nc1c(I)c(C(=O)NC(CO)CO)c(I)c(C(=O)NC(CO)CO)c1I [Iopamidol] | about 2560 s^−1
5 | 22 | 66 | 118 | 292 | 913 | 1628 | 3660 |  | O=C(NCC(O)CO)c1c(I)c(C(=O)NCC(O)CO)c(I)c(N(CCO)C(=O)CO)c1I (stereo not drawn) [Ioversol] | 
